Reference: patent US20250262167A1, “COMPOUNDS, TARGETS AND PATHWAYS FOR MACROPHAGE MODULATION” (Massachusetts Institute of Technology, priority 2020, published 2025)

How the values were obtained:
[1] = test system: mouse BMMs with anti-CD20 labelled human B lymphoma cells (GMB); test: ADCP of mouse macrophages; format: cell-based; design: dose or concentration left out as unconfirmed; settings: co-culture 2 hrs
Method: Conditioned medium (CM) was collected and filtered. B16F10 melanoma cells were cultured for 12 hrs with CM or CM heat-inactivated at 95° C. for 5 min. The number of tumor cells were quantified by flow cytometry. Data were summarized from two independent experiments. * P<0.05 by T-test. P values are shown based on t-test. […] Mouse BMMs (FIG. 14B) or hMDM (FIG. 14C) were treated with […] thiostrepton for 24 hrs, then co-cultured with equal number of eFluro670 and anti-CD20 labelled human B-cell lymphoma cells for 2 hrs, and analyzed by flow cytometry. Macrophages that have phagocytosed tumor cells are identified as efluro670+ and CD14+. Shown are representative eFluro670 histograms gating on CD14+ macrophages from three different experiments.
To examine whether thiostrepton-activating macrophages or conditioned medium have effects on tumor cell growth, BMMs were treated with thiostrepton for 24 hrs. Equal numbers of primed BMMs and melanoma cells (B16F10) were co-cultured for 12 hrs. […] Thiostrepton elevated ADCP of both human and mouse macrophages (FIGS. 14B-14C).

[2] = test system: ImKCs (immortalized line of mouse Kupffer cells); test: Seahorse ECAR/OCR (glycolysis, OxPhos) in ImKCs; format: cell-based
Method: Shown are representative data of three independent experiments. […] Data are presented as the mean±sd (n=4).
(§1) FIGS. 21A-21I show DPI stimulates glycolysis through GPR3 and β-arrestin2. FIGS. 21A-21B show DPI-stimulated glycolysis is independent of the NOX activity. […] The mean fluorescence intensity (MFI) of 2-NBDG in cells was measured by flow cytometry and normalized to DMSO controls of wildtype BMDMs. Data are presented as the mean±sd (n=3). […] ImKCs were transfected with siRNA specific for Gpr3 or a scramble siRNA as control. […] Data are presented as the mean±sd (n=4). […] Data are presented as the mean±sd (n=12). […] Abbr2^−/− ImKC were constructed by CRISPR-Cas9-mediated gene editing. […] Data are presented as the mean±sd (n=4). […] ImKCs were transfected with Abbr2-GFP fusion gene and stimulated with DMSO, DPI (50 nM), or S1P (3 mM). The GFP signal was captured with a TIRF microscope at indicated time points. Shown are representative data of GFP signal at 0 min and 10 min, and merged signal from three independent experiments.
Specific parameters for glycolytic capacity and glycolytic reserve were calculated and summarized based on two independent experiments. […] The GFP signal was captured with a TIRF microscope at indicated time points. Shown are representative data of GFP signal at 0 min and 10 min, and the merged signal from three independent experiments.
OCR and ECAR were measured in isolated tissues or cultured ImKCs using the Seahorse XFe Extracellular Flux Analyzer (Agilent). For tissue respiration assays, 1.0 mg adipose tissue was dissected from inguinal WAT depots by using a surgical biopsy instrument (Integra Miltex Standard Biopsy Punches, Thermo Fisher) and placed into XF96 Islet Capture Microplates and pre-incubated with XF assay medium with pH value at 7.4. XF assay medium supplemented with 1 mM sodium pyruvate, 2 mM GlutaMax™-I, and 25 mM glucose. Isolated MDMs or Kupffer cells were subjected to a mitochondrial stress test by adding oligomycin (2 μM) followed by carbonyl cyanide 4-(trifluoromethoxy), phenylhydrazone (FCCP, 5 μM), and antimycin (1 μM). For glucose stress assay and ECAR measurement, XF assay medium was supplemented only with GlutaMax™-I. Tissue or cells were subjected to a glucose stress test by adding highly concentrated glucose (for tissue, 25 mM; for cells, 10 mM), followed by adding oligomycin (5 μM), FCCP (5 μM), and 2-DG (50 mM). Cells were seeded in culture dishes, and the medium was changed after 6 hours with serum-free DMEM. Cells were incubated for 12-16 hours, and the culture medium was then collected for measurement of glucose and lactate concentrations. Glucose levels were determined using a glucose (GO) assay kit (Sigma). Glucose consumption was the difference in glucose concentration when compared with DMEM. Lactate levels were determined using a lactate assay kit (Eton Bioscience).
DPI is an agonist of GPR3 and an inhibitor of […] oxidase (NOX). We first determined the requirement of NOX in DPI-stimulated glycolysis.
To determine the requirement of GPR3, we knocked down GPR3 by siRNA (siGpr3) in ImKCs.
β-arrestin2, encoded by Arrb2, has been reported to bind to GPR3 and is required for GPR3 signaling. To investigate the requirement of 0-arrestin2 in DPI-stimulated glycolysis, we constructed Arrb2^−/− ImKCs using CRISPR-Cas9 mediated gene editing (FIG. 28F).

β-arrestin2 = β-arrestin2 translocation assay (TIRF microscope); format: cell-based, mouse; settings: 10 min, ImKCs and BMDMs; DPI 50 nM, S1P 3 mM
Method: as §1
Specific parameters for glycolytic capacity and glycolytic reserve were calculated and summarized based on two independent experiments. […] The GFP signal was captured with a TIRF microscope at indicated time points. […]
BMDMs or ImKCs were cotransfected with plasmids encoding FLAG-GPR3-GFP or β-arrestin2-RFP. […] The fluorescent signals of membrane-bound receptor or β-arrestin2 were collected as live images using a total internal reflection fluorescence (TIRF) microscope (Olympus). […]

ImKCs [3] = settings: 6 hours, dose-dependent
Method: ImKCs were treated with DPI for 6 hrs and select metabolites in the glycolytic pathway and TCA cycle were quantified by LC-MS. Data are presented as the mean±sd (n=4). P values were calculated by student t-test. * P<0.05, ** P<0.01, *** P<0.001, **** P<0.0001.
ImKCs were treated with DPI (500 nM) for 24 hrs and the select metabolites were quantified by LC-MS. Shown are representative data of two independent experiments. P values were calculated by student t-test. * P<0.05, ** P<0.01. n.s. not significant.
ImKCs were treated with DPI (#81050, Cayman) at 50 or 500 nM for 6 hrs or 24 hrs. Cells were washed once in ice-cold 0.9% NaCl and lysates were extracted in 80% methanol solution containing internal standards for LC/MS by scraping on dry ice followed by 10-minute mixing with vortex in 4° C. Following lysate extraction, debris were removed by high-speed centrifugation and supernatant was dried using speedvac. Samples were analyzed by LC/MS on QExactive Orbitrap instruments (Thermo Scientific) in Whitehead Institute metabolite profiling core facility.

[4] = test system: human primary macrophages
Method: (§2) Total protein lysates were isolated from either mouse ImKCs with or without DPI treatment for 6 and 12 hrs or human primary macrophages with or without DPI treatment for 12 hrs at the indicated concentrations. Equal amounts of total proteins from whole-cell lysates were subjected to Western blotting analysis. β-actin was used as a loading control. Shown are representative data of two independent experiments. […] P values were calculated by student t-test. * P<0.05, ** P<0.01. n.s. not significant.
(§3) Proteins were extracted from cells with RIPA buffer. Protein concentration was quantified by BCA Protein Assay Kit (Pierce Biotechnology). Samples containing 20 μg total protein were resolved on a 10% SDS-PAGE gel and electro-transferred onto a PVDF membrane (Millipore Corporation). The membrane was blocked in 5% (w/v) fat-free milk in PBST (PBS containing 0.1% Tween-20). […] The blot was washed twice in PBST and then incubated with anti-Rabbit HRP-conjugated secondary antibody (Cell Signaling Technology, 1:2000) in 5% fat-free milk. The membrane was washed twice in PBST and subjected to protein detection by ECL Plus Western Blotting Detection System (GE Healthcare) before being exposed to a Kodak BioMax XAR film.

ImKCs [5] = settings: dose- and time-dependent
Method: as §2, §3

[6] = KC-specific Pkm−/− mice
Method: FIGS. 24G-24H show DPI's effect on KC-specific Pkm^−/− mice fed with HFD. Male KC-specific Pkm^−/− mice at the age of 5 weeks were fed with HFD for a total of 8 weeks. Three weeks after HFD, half of the mice were given DPI in vehicle (2 mg/kg) and the other half were given vehicle every 5 days for a total of 6 doses. Body weights were monitored weekly (FIG. 24G). Data are presented as the mean±sd from two independent experiments with 6 mice per group. Comparison of H&E staining of liver sections after 8 weeks on HFD. Shown are representative H&E staining from one mouse per group. Arrows in FIG. 24F and FIG. 24H point to lipid droplets. Scale bar: 100 μm. P values were calculated by student t-test. * P<0.05, ** P<0.01, *** P<0.001, **** P<0.0001.
FIGS. 34A-34C show effect of DPI on Kupffer cell-specific Pkm^−/− mice on HFD. […] KC-specific Pkm^−/− mice were given HFD for a total of 8 weeks. Three weeks after HFD, half of the mice were given DPI in vehicle (2 mg/kg) and the other half were given vehicle every 5 days for a total of 6 doses. At 7 weeks plus 3 days, mice were starved overnight (12˜16 hrs) with only water. Glucose (1 mg/kg) was injected intraperitoneally and blood glucose levels were monitored at the indicated time. […] Sera from mice were collected at the end of HFD feeding and activities of AST and ALT were measured by colorimetric assay kits (Sigma). Shown are representative data from two independent experiments with 5˜6 mice per group. P values were calculated by student t-test. n.s. not significant. * P<0.05.
KC-specific Pkm^−/− mice were fed with HFD for 8 weeks starting at 5 weeks of age. Three weeks after HFD, half of the mice were given vehicle and the other half was given DPI (2 mg/kg) i.p. every 5 days.

Kupffer cells (KCs) = settings: HFD mice
Method: Single cell suspension was prepared from mice from FIG. 24A after 8 weeks on HFD (6 mice per group), stained with anti-F4/80, anti-CD11b and anti-Gr-1. F4/80^+CD11b^+Gr1^low macrophages were purified by cell sorting followed by RNAseq. Shown are differentially expressed genes among the three groups. […] M1-type polarization is expressed as positive scores whereas M2-type polarization is expressed as negative scores.
Mouse livers were dissected and digested with Collagenase IV (Roche). Single cell suspension was stained with anti-F4/80, anti-CD11b and anti-Gr-1. F4/80^+CD11b^+Gr1^low macrophages were sorted by flow cytometry (BD Aria). RNAs were extracted with RNeasy MinElute Kit (Qiagen), converted into cDNA and sequenced using Next-Generation Sequencing (Illumina). RNA-seq data were aligned to the human genome (version hg19) and raw counts of each genes of each sample were calculated with bowtie2 2.2.3 (Langmead et al. 2009) and RSEM 1.2.15 (Li et al. 2011). Differential expression analysis was performed using the program edgeR at P<0.05 with a two-fold change (Robinson et al. 2010). The gene expression level across different samples was normalized and quantified using the function of cpm. DEGs were annotated using online functional enrichment analysis tool DAVID (Huang et al. 2007).

[7] = 5, 50 and 500 nM, short-term, dose-dependent

Row | Compound | ADCP [1] | ECAR [2, 7] | OCR [2, 7] | glycolytic capacity and reserve ([2]; 50 and 500 nM, 24 hrs) | glycolysis and glycolytic capacity ([2]; Arrb2−/− ImKCs, 50 nM) | glycolysis, glycolytic capacity and glucose consumption ([2]; siGpr3 ImKCs, 50 nM) | glycolysis and glycolytic capacity ([2]; siGpr3 ImKCs, 500 nM, lower than in scramble siRNA ImKCs) | translocation of β-arrestin2 from cytosol to the plasma membrane (β-arrestin2) | glucose level (ImKCs [3]) | levels of TCA cycle intermediates (ImKCs [3]) | levels of glycolysis intermediates (G6P, F1,6BP, G3P, pyruvate, lactate) (ImKCs [3]) | transcription of genes in the glycolysis pathway ([4]; 50 nM, 24 hours, RNAseq) | HK, GAPDH, LDHA and enolase at the protein level ([4]; human primary macrophages, dose- and time-dependent) | HK, GAPDH, LDHA and enolase at the protein level (ImKCs [5]) | iWAT [6] | HFD-induced body-weight gain and lipid droplet deposition in the livers ([6]; 2 mg/kg i.p. every 5 days) | glucose tolerance, serum AST and ALT levels ([6]; with or without DPI) | expression of genes involved in glycolysis, oxidative phosphorylation and fatty acid metabolism in KCs (Kupffer cells (KCs)) | expression of genes involved in inflammation in KCs (Kupffer cells (KCs)) | macrophage polarization index (MPI) of KCs (Kupffer cells (KCs))
1 | C=C(NC(=O)C(=C)NC(=O)c1csc(C2=N[C@@H]3c4csc(n4)[C@H]4NC(=O)c5csc(n5)[C@H]([C@](C)(O)[C@@H](C)O)NC(=O)[C@H]5CSC(=N5)/C(=C/C)NC(=O)[C@H]([C@@H](C)O)NC(=O)c5csc(n5)[C@]3(CC2)NC(=O)[C@H](C)NC(=O)C(=C)NC(=O)[C@H](C)NC(=O)[C@H]([C@@H](C)CC)N[C@@H]2C=Cc3c([C@H](C)O)cc(nc3[C@H]2O)C(=O)O[C@@H]4C)n1)C(N)=O [Thiostrepton] | elevated |  |  |  |  |  |  |  |  |  |  |  |  |  |  |  |  |  |  | 
2 | c1ccc2c(c1)[I+]c1ccccc1-2 [Diphenyleneiodonium chloride] |  | immediate increase | concomitant decrease | significant increase | did not stimulate any increase | did not stimulate any increase | significant increase | stimulated translocation | decreased significantly | all decreased | increased significantly | stimulates transcription | upregulation | upregulation | significantly lower level | did not reduce | similar | upregulated | significantly suppressed | reprogrammed to an intermediated phenotype
